Laboratory results taken from patent US6660752B2, “2,6-Substituted chroman derivatives useful as beta-3 adrenoreceptor agonists” (Bayer Pharmaceuticals Corporation, priority 2001, dated 2003).
Where a name gives a salt, the structure may show the parent alone.

The compounds below were run against T1, human beta-3-adrenergic receptor (Homo sapiens, UniProt P13945) (assay: cAMP production (beta-3 agonist activity) in CHO cells stably expressing human beta-3-adrenergic receptor, cAMP SPA). Details: CHO cells expressing full-length human beta-3-adrenergic receptor, 30 min incubation, 10 μM to 3 nM, read-out: Beta-3 Agonistic Activity: Compounds with EC50 values >1 μM.
T1 construct: stably express full-length human beta-3-adrenergic receptor; expressed in transfected cells; host or cells: Chinese hamster ovary (CHO) cells
T1 sequence (P13945 whole entry): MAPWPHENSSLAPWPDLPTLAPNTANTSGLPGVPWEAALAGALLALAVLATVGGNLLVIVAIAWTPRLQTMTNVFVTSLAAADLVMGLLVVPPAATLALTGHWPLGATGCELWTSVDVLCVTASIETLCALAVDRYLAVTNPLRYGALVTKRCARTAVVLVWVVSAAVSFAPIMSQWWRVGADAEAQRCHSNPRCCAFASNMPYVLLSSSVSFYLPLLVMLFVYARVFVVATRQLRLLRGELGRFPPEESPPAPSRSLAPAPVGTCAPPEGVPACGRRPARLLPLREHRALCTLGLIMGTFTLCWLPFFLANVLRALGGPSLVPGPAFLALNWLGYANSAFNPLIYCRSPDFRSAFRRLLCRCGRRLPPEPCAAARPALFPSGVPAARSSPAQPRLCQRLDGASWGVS
Type: cell-based
Protocol: Chinese hamster ovary (CHO) cells that stably express full-length human beta-3-adrenergic receptor (Granneman et al., Mol. Pharmacol. 44:264-270, 1993) can be used in the following procedure. The cell line is grown in 90% F12 nutrient mixture (HAM), 10% fetal bovine serum, 100 units/ml penicillin G sodium, […] streptomycin sulfate, and 2 mM L-glutamine at 37° C. in 95% air and 5% CO2. The transfected cell line is maintained with G-418 (800 μg/ml).
To test the agonist activity, cells are exposed to test compound and then assayed for cAMP production. CHO cells (100 μl) are plated at 5×10^4 cells/well of a 96-well plate (Costar, Cambridge, Mass.) to achieve 70% confluency the next day. After overnight incubation at 37° C., media is removed and the cells are treated for 30 minutes at 37° C. with KRP buffer (120 mM NaCl, 5.1 mM KCl, 0.6 mM MgSO4.7H2O, 0.8 mM CaCl2.H2O, […] phosphate buffer, […] Hepes pH 7.4)+[…] IBMX ([…]), +1% DMSO, +/− test compounds ([…]). Test compounds are assayed from 10 μM to 3 nM with 3-fold serial dilutions. The control agonist, isoproterenol (10 mM stock in 1.1 mM ascorbate), is assayed by 3-fold dilution beginning at 1 μM. After a 30-minute incubation with the test compounds, the buffer/compound mixture is removed. The cells are lysed and cAMP levels are measured using the cAMP SPA screening assay system (Amersham, Arlington Heights, Ill.). The cAMP values are then plotted to determine the EC50 of each compound tested.
Work on `Nc1ccc([C@@H](O)CNC[C@H]2CCc3cc(C(=O)N4CCCC[C@H]4C(=O)O)ccc3O2)cn1` [Example 364] yielded an EC50 greater than 1000 nM.

Same assay, conditions: CHO cells expressing full-length human beta-3-adrenergic receptor, 30 min incubation, 10 μM to 3 nM, read-out: Beta-3 Agonistic Activity: Compounds with EC50 values ≦1 μM
For `Nc1ccc([C@@H](O)CNC[C@H]2CCc3cc(-c4cccc(C(=O)O)c4)ccc3O2)cn1` [Example 386, 3-[(2R)-2-({[(2R)-2-(6-amino-3-pyridinyl)-2-hydroxyethyl]amino}methyl)-3,4-dihydro-2H-chromen-6-yl]benzoic Acid], the EC50 was no more than 1000 nM.
Work on `N#Cc1ccc(NS(=O)(=O)c2cccc(-c3ccc4c(c3)CC[C@H](CNC[C@H](O)c3cccnc3)O4)c2)cc1` [Example 257] yielded an EC50 of no more than 1000 nM.
For `CC1(O)C(=O)NN(c2cccc(-c3ccc4c(c3)CC[C@@H](CNC[C@H](O)c3cccnc3)O4)c2)C1=O` (stereo partly drawn) [Example 314, 4-hydroxy-1-{3-[(2S)-2-({[(2R)-2-hydroxy-2-(3-pyridinyl)ethyl]amino}methyl)-3,4-dihydro-2H-chromen-6-yl]phenyl}-4-methyl-3,5-pyrazolidinedione Dihydrochloride], the EC50 was no more than 1000 nM.
In the case of `O=S(=O)(Nc1ccc(-c2ccc3c(c2)CC[C@H](CNC[C@H](O)c2cccnc2)O3)nc1)c1ccccc1` [Example 319, N-{6-[(2R)-2-({[(2R)-2-hydroxy-2-(3-pyridinyl)ethyl]amino}methyl)-3,4-dihydro-2H-chromen-6-yl]-3-pyridinyl}benzenesulfonamide Trihydrochloride], the EC50 is reported as no more than 1000 nM.
`CC(=O)c1ccc(NS(=O)(=O)c2ccc(-c3ccc4c(c3)CC[C@H](CNC[C@H](O)c3cccnc3)O4)cc2OC(F)(F)F)cc1` [Example 263] showed an EC50 of no more than 1000 nM.
`Cc1ccc(NC(=O)NS(=O)(=O)c2ccc(-c3ccc4c(c3)CC[C@H](CNC[C@H](O)c3cccnc3)O4)cc2)cc1` [Example 326, 3-((1R)-1-hydroxy-2-{[((2R)-6-{4-[({[(4-methylphenyl)amino]carbonyl}amino)sulfonyl]phenyl}-3,4-dihydro-2H-chromen-2-yl)methyl]amino}ethyl)pyridine] gave an EC50 of no more than 1000 nM.
`O=C(O)c1ccc(CCc2ccc3c(c2)CCC(CNC[C@H](O)c2cccnc2)O3)cc1` (stereo in doubt) [Example 215, 4-{2-[(2S)-2-({[(2R)-2-hydroxy-2-(3-pyridinyl)ethyl]amino}methyl)-3,4-dihydro-2H-chromen-6-yl]ethyl}benzoic Acid] was tested, and the EC50 was no more than 1000 nM.
Work on `O=C(NS(=O)(=O)c1ccc(-c2ccc3c(c2)CC[C@H](CNC[C@H](O)c2cccnc2)O3)cc1)c1ccccc1` [Example 294, N-benzoyl-4-[(2R)-2-({[(2R)-2-hydroxy-2-(3-pyridinyl)ethyl]amino}methyl)-3,4-dihydro-2H-chromen-6-yl]benzenesulfonamide] yielded an EC50 of no more than 1000 nM.
Compound `CCCOc1cc(-c2ccc3c(c2)CC[C@H](CNC[C@H](O)c2cccnc2)O3)ccc1C(=O)O` [Example 186, 4-[(2R)-2-({[(2R)-2-hydroxy-2-(3-pyridinyl)ethyl]amino}methyl)-3,4-dihydro-2H-chromen-6-yl]-2-propoxybenzoic acid] has an EC50 of no more than 1000 nM.
`COc1ccc([C@H](O)CNC[C@H]2CCc3cc(-c4ccc(C(=O)O)cc4)ccc3O2)cn1` [Example 343] was tested, and the EC50 was no more than 1000 nM.
`O=C(Nc1ccc(-c2ccc3c(c2)CC[C@H](CNC[C@H](O)c2cccnc2)O3)nc1)c1ccccc1` [Example 322] was tested, and the EC50 was no more than 1000 nM.
Work on `O=S(=O)(Nc1nc2ccccc2s1)c1ccc(-c2ccc3c(c2)CCC(CNC[C@H](O)c2cccnc2)O3)cc1` (stereo partly drawn) [Example 276] yielded an EC50 of no more than 1000 nM.
`CC(C)NC(=O)NS(=O)(=O)c1ccc(-c2ccc3c(c2)CC[C@H](CNC[C@H](O)c2cccnc2)O3)cc1` [Example 339] gave an EC50 of no more than 1000 nM.
`COCCOc1cc(-c2ccc3c(c2)CC[C@H](CNC[C@H](O)c2cccnc2)O3)ccc1C(=O)O` [Example 187, 4-[(2R)-2-({[(2R)-2-hydroxy-2-(3-pyridinyl)ethyl]amino}methyl)-3,4-dihydro-2H-chromen-6-yl]-2-(2-methoxyethoxy)benzoic acid] showed an EC50 of no more than 1000 nM.
In the case of `Cc1cc(Cl)ccc1NC(=O)NS(=O)(=O)c1ccc(-c2ccc3c(c2)CC[C@H](CNC[C@H](O)c2cccnc2)O3)cc1` [Example 330, 3-((1R)-2-{[((2R)-6-{4-[({[(4-chloro-2-methylphenyl)amino]carbonyl}amino)sulfonyl]phenyl}-3,4-dihydro-2H-chromen-2-yl)methyl]amino}-1-hydroxyethyl)pyridine], the EC50 is reported as no more than 1000 nM.
For `CC(C)(C)CC(=O)NS(=O)(=O)c1ccc(-c2ccc3c(c2)CC[C@H](CNC[C@H](O)c2cccnc2)O3)cc1` [Example 287, N-(3,3-dimethylbutanoyl)-4-[(2R)-2-({[(2R)-2-hydroxy-2-(3-pyridinyl)ethyl]amino}methyl)-3,4-dihydro-2H-chromen-6-yl]benzenesulfonamide], the EC50 was no more than 1000 nM.
For `O=C(O)c1ccc(-c2ccc3c(c2)CC[C@H](CNC[C@H](O)c2cccnc2)O3)cc1Oc1ccc(Cl)cc1` [Example 194, 2-(4-chlorophenoxy)-4-[(2R)-2-({[(2R)-2-hydroxy-2-(3-pyridinyl)ethyl]amino}methyl)-3,4-dihydro-2H-chromen-6-yl]benzoic acid], the EC50 was no more than 1000 nM.
Compound `COc1ccc(-c2ccc3c(c2)CCC(CNC[C@H](O)c2cccnc2)O3)cc1S(=O)(=O)Nc1ccc(C#N)cc1` (stereo partly drawn) [Example 277] has an EC50 of no more than 1000 nM.
In the case of `N#Cc1ccc(NS(=O)(=O)c2ccc(-c3ccc4c(c3)CC[C@H](CNC[C@H](O)c3cccnc3)O4)cc2OC(F)(F)F)cc1` [Example 262, N-(4-cyanophenyl)-4-[(2R)-2-({[(2R)-2-hydroxy-2-(3-pyridinyl)ethyl]amino}methyl)-3,4-dihydro-2H-chromen-6-yl]-2-(trifluoromethoxy)benzenesulfonamide], the EC50 is reported as no more than 1000 nM.
In the case of `O=S(=O)(Nc1cnccc1C(F)(F)F)c1ccc(-c2ccc3c(c2)CC[C@H](CNC[C@H](O)c2cccnc2)O3)cc1` [Example 251], the EC50 is reported as no more than 1000 nM.
`Nc1ccc([C@@H](O)CNC[C@H]2CCc3cc(-c4ccc(-c5nnn[nH]5)cc4)ccc3O2)cn1` [Example 384, (1R)-1-(6-amino-3-pyridinyl)-2-[({(2R)-6-[4-(1H-tetraazol-5-yl)phenyl]-3,4-dihydro-2H-chromen-2-yl}methyl)amino]ethanol] showed an EC50 of no more than 1000 nM.
Work on `O=C(Nc1cccc(F)c1)NS(=O)(=O)c1ccc(-c2ccc3c(c2)CC[C@H](CNC[C@H](O)c2cccnc2)O3)cc1` [Example 338] yielded an EC50 of no more than 1000 nM.
`NS(=O)(=O)c1ccc(-c2ccc3c(c2)CC[C@H](CNC[C@H](O)c2cccnc2)O3)cc1` [Example 325, 4-[(2R)-2-({[(2R)-2-hydroxy-2-(3-pyridinyl)ethyl]amino}methyl)-3,4-dihydro-2H-chromen-6-yl]benzenesulfonamide] showed an EC50 of no more than 1000 nM.
`O=S(=O)(Nc1ncccn1)c1ccc(-c2ccc3c(c2)CC[C@H](CNC[C@H](O)c2cccnc2)O3)cc1` [Example 249A, 4-[(2R)-2-({[(2R)-2-hydroxy-2-(3-pyridinyl)ethyl]amino}methyl)-3,4-dihydro-2H-chromen-6-yl]-N-(2-pyrimidinyl)benzenesulfonamide] was tested, and the EC50 was no more than 1000 nM.
`COc1cc(OC)nc(NS(=O)(=O)c2ccc(-c3ccc4c(c3)CC[C@H](CNC[C@H](O)c3cccnc3)O4)cc2)n1` [Example 267] was tested, and the EC50 was no more than 1000 nM.
For `COc1cc(C)nc(NS(=O)(=O)c2cc(-c3ccc4c(c3)CC[C@H](CNC[C@H](O)c3cccnc3)O4)ccc2OC)n1` [Example 271], the EC50 was no more than 1000 nM.
`O=C(Nc1ccccc1F)NS(=O)(=O)c1cccc(-c2ccc3c(c2)CC[C@H](CNC[C@H](O)c2cccnc2)O3)c1` [Example 336] showed an EC50 of no more than 1000 nM.
`Cc1ccc(S(=O)(=O)CC(=O)c2ccc(-c3ccc4c(c3)CC[C@H](CNC[C@H](O)c3cccnc3)O4)cc2)cc1` [Example 309] was tested, and the EC50 was no more than 1000 nM.
For `O=C(Nc1ccc(F)cc1)NS(=O)(=O)c1cccc(-c2ccc3c(c2)CC[C@H](CNC[C@H](O)c2cccnc2)O3)c1` [Example 333], the EC50 was no more than 1000 nM.
`COc1ccc(-c2ccc3c(c2)CC[C@H](CNC[C@H](O)c2cccnc2)O3)cc1S(=O)(=O)Nc1nccc(C)n1` [Example 269] gave an EC50 of no more than 1000 nM.
Compound `CC(=O)Nc1ccc(-c2ccc3c(c2)CC[C@H](CNC[C@H](O)c2cccnc2)O3)nc1` [Example 323] has an EC50 of no more than 1000 nM.
In the case of `O=C(NS(=O)(=O)c1cccc(-c2ccc3c(c2)CC[C@H](CNC[C@H](O)c2cccnc2)O3)c1)c1cccc(Cl)c1` [Example 302], the EC50 is reported as no more than 1000 nM.
`O=C(O)c1ccc(-c2ccc3c(c2)CC[C@H](CNC[C@@H](O)c2c(F)ccc(Cl)c2F)O3)cc1` [Example 348] gave an EC50 of no more than 1000 nM.
In the case of `COCC(=O)NS(=O)(=O)c1ccc(-c2ccc3c(c2)CC[C@H](CNC[C@H](O)c2cccnc2)O3)cc1` [Example 291], the EC50 is reported as no more than 1000 nM.
`COc1cc(C)nc(NS(=O)(=O)c2ccc(-c3ccc4c(c3)CC[C@H](CNC[C@H](O)c3cccnc3)O4)cc2)n1` [Example 273, 4-[(2R)-2-({[(2R)-2-hydroxy-2-(3-pyridinyl)ethyl]amino}methyl)-3,4-dihydro-2H-chromen-6-yl]-N-(4-methoxy-6-methyl-2-pyrimidinyl)benzenesulfonamide] was tested, and the EC50 was no more than 1000 nM.
